Laboratory results published in patent US8507562B2, “Synthesis of (1)-beta-elemene, (-)-beta-elemenal, (-)-beta-elemenol, (-)-beta-elemene fluoride and their analogues, intermediates, and composition and uses thereof” (HYWE Pharmaceuticals, Inc., priority 2004, dated 2013).
Converted amounts (≈) assume the structure as drawn. Like-named read-outs stand apart in the source and are kept apart here.

Key:
[1] = system: A-172 brain tumor; experiment: MTT survival assay; type: cell-based, human; details: Homo sapiens, A 172, read-out: IC50
Method: (§3) The MTT assay is a commonly used method in evaluation of cell survival, based on the ability of viable cells to convert MTT, a soluble tetrazolium salt [3-(4,5-dimethylthuazole-2-yl)-2,5 diphenyl tetrazolium bromide], into an insoluble formazan precipitate, which is quantitated by spectrophotometry following solubilization in dimethyl sulfoxide (DMSO).
(§4) The cells were then solubilized in 125 μl of DMSO and absorbance readings were taken using a 96-well Opsys MRI Microplate Reader (ThermoLabsystems; Chantilly, Va.). The amount of MTT dye reduction was calculated based on the difference between absorbance at 570 nm and at 630 nm. Cell viability in treated cells was expressed as the amount of dye reduction relative to that of untreated control cells. The wells which contained only medium and 10 μl of MTT were used as blanks for the plate reader. Three sets of experiments were performed in 8-12 wells for each treatment.
(§5) The cells were then solubilized in 125 μl of DMSO and absorbance readings were taken using a 96-well Opsys MRI Microplate Reader (ThermoLabsystems; Chantilly, Va.). The amount of MTT dye reduction was calculated based on the difference between absorbance at 570 nm and at 630 nm. Cell viability in treated cells was expressed as the amount of dye reduction relative to that of untreated control cells. The wells which contained only medium and 10 μI of MTT were used as blanks for the plate reader. Three sets of experiments were performed in 8-12 wells for each treatment.

[2] = system: STTG1 brain tumor; experiment: MTT survival assay; type: cell-based, human; details: Homo sapiens, read-out: IC50
Method: as §3, §4

[3] = system: U-87 brain tumor; experiment: MTT survival assay; type: cell-based, human; details: Homo sapiens, read-out: IC50
Method: as §3, §4, §5

[4] = system: human glioma cells; experiment: MTT assay, elemene analogs; type: cell-based; details: for IC50: Homo sapiens, Glioma cell
Method: as §3, §4

[5] = system: H-460 lung cancer; experiment: MTT survival assay; type: cell-based, human; details: 2 × 10^4 cells/ml
Method: as §3, §4
(§6) In brief, carcinoma cells treated with test articles alone, in 96-well tissue culture dishes were incubated with MTT (2 μg/ml) for 4 h. The cells were then solubilized in 125 μl of DMSO and absorbance readings were taken using a 96-well Opsys MRI Microplate Reader (ThermoLabsystems; Chantilly, Va.). The amount of MTT dye reduction was calculated based on the difference between absorbance at 570 nm and at 630 nm. Cell viability in treated cells was expressed as the amount of dye reduction relative to that of untreated control cells. The wells that contained only medium and 10 μl of MTT were used as blanks for the plate reader.
as §5

[6] = system: A549 lung cancer; experiment: MTT survival assay; details: 2 × 10^4 cells/ml
Method: as §3, §6

[7] = system: human glioma SHG-44G (xenograph under skin); experiment: Xenograph under skin, injection directly into tumor; type: in vivo, nude mice; details: listed as printed Pos. Cont. VM-26: 60 mg/kg it × 10 qd
Excerpt: (§1) The mice were killed after 3 weeks.
Nude mice grew on the cengliu rack.

[8] = system: human glioma SHG44 (xenograph in brain); experiment: Tumor xenographed in mice brain, survival; type: in vivo, nude mice; details: 5 mg/kg/time ip × 7 qd
Method: (§2) Mice model with tumor xenographed in mice brain: Glioma cell line G-422 or SHG44 (log phase) were diluted to 2×10^7/ml in cell culture hood (no bacteria environment). Each mouse was injected with 0.05 ml of tumor cell in its brain. […] The survival time of these mice was recorded in the next 30 days. The life extension was calculated using the following formula: Life Extension Rate=[( […])/Average survival days of control group[×100 Results: […]

[9] = system: human glioma G422 (xenograph in brain); experiment: Tumor xenographed in mice brain, survival; type: in vivo; details: 5 mg/kg/time ip × 7 qd
Method: as §2

[10] = system: human glioma G-422 (xenograph under skin); experiment: Xenograph under skin, injection directly into tumor; type: in vivo, mice; details: 5 mg ip × 10 qd
Excerpt: as §1

[11] = system: Colon Cancer Cells Colo 205; experiment: MTS cell viability assay; details: Colo 205, drug alone
Method: (§7) Cells were maintained at 37° C. in a humidified atmosphere including 5% CO2. […] Drugs were dissolved in 100% DMSO and then diluted in medium for experiments.

[12] = system: Colon Cancer Cells HCT-15; experiment: MTS cell viability assay; details: combinations with Elemene 160 μg/ml, n = 8
Method: as §7

[13] = system: Colon Cancer Cells HCT-116; experiment: MTS cell viability assay; type: cell-based, human; details: combinations with Elemene 160 μg/ml, n = 8

**Q.** Which results are given for `C=C[C@]1(C)CC[C@@H](C(C)=O)C[C@H]1C(=C)C` [Lr-3, 1-((1R,3S,4S)-3-Isopropenyl-4-methyl-4-vinyl-cyclohexyl)-ethanone]?
**A.** IC50 ([1]; A172, 24 h): > 140 µg/mL; IC50 ([1]; A172, 48 h): 134 µg/mL (≈ 649 µM); IC50 ([1]; A172, 72 h): 106 µg/mL (≈ 514 µM); IC50 ([2]; STTG1, 24 h): 108 µg/mL (≈ 523 µM); IC50 ([2]; STTG1, 48 h): > 120 µg/mL; IC50 ([2]; STTG1, 72 h): 110 µg/mL (≈ 533 µM); IC50 ([3]; U87, 24 h): 118 µg/mL (≈ 572 µM); IC50 ([3]; U87, 48 h): > 120 µg/mL; IC50 ([3]; U87, 72 h): 120 µg/mL (≈ 582 µM); IC50 ([4]; 24 hr): > 200 µg/mL; IC50 ([4]; 48 hr): > 200 µg/mL; IC50 ([4]; 72 hr): > 200 µg/mL

**Q.** Which results are given for “(S)-1,5-Diisopropenyl-2-methyl-cyclohex-2-enol, and (R)-1,5-Diisopropenyl-2-methyl-cyclohex-2-enol [Lr-4]”?
**A.** IC50 in human glioma cells ([4]; 24 hr): >200 µg/mL; IC50 in human glioma cells ([4]; 48 hr): >200 µg/mL; IC50 in human glioma cells ([4]; 72 hr): >200 µg/mL

**Q.** How did the IC50 ([4]; 24 hr) turn out when `C=C(C)C1=C(C)C(=O)C[C@@H](C(=C)C)C1` [Lr-6, (S)-3,5-Diisopropenyl-2-methyl-cyclohex-2-enone] was run?
**A.** The IC50 was over 200 µg/mL.

**Q.** And the IC50 ([4]; 48 hr)?
**A.** Its IC50 is over 200 µg/mL.

**Q.** What about the IC50 ([4]; 72 hr) of the same molecule?
**A.** Its IC50 is over 200 µg/mL.

**Q.** With (−)-Beta-elemene Fluoride as the molecule, how does the IC50 ([5]; H460, 24 h) read?
**A.** Its IC50 is 71.3 µg/mL.

**Q.** And the IC50 ([5]; H460, 48 h)?
**A.** The IC50 was 62.5 µg/mL.

**Q.** What about the IC50 ([5]; H460, 72 h) of the same molecule?
**A.** The IC50 was 68.6 µg/mL.

**Q.** What about the IC50 ([6]; A549, 24 h) of the same molecule?
**A.** The IC50 was 83.0 µg/mL.

**Q.** What about the IC50 ([6]; A549, 48 h) of the same molecule?
**A.** The IC50 was 64.5 µg/mL.

**Q.** What about the IC50 ([6]; A549, 72 h) of the same molecule?
**A.** Its IC50 is 71.4 µg/mL.

**Q.** What does the source list for `C=C[C@]1(C)CC[C@@H]([C@](C)(O)CO)C[C@H]1C(=C)C` [Lr-2, (S)-2-((1R,3S,4S)-3-isopropenyl-4-methyl-4-vinyl-cyclohexyl)-propane-1,2-diol]?
**A.** IC50 ([1]; A172, 24 h): 122 µg/mL (≈ 512 µM); IC50 ([1]; A172, 48 h): 96 µg/mL (≈ 403 µM); IC50 ([1]; A172, 72 h): 65 µg/mL (≈ 273 µM); IC50 ([2]; STTG1, 24 h): 112 µg/mL (≈ 470 µM); IC50 ([2]; STTG1, 48 h): 98 µg/mL (≈ 411 µM); IC50 ([2]; STTG1, 72 h): 97 µg/mL (≈ 407 µM); IC50 ([3]; U87, 24 h): 90 µg/mL (≈ 378 µM); IC50 ([3]; U87, 48 h): 94 µg/mL (≈ 394 µM); IC50 ([3]; U87, 72 h): 87 µg/mL (≈ 365 µM); IC50 ([4]; 48 hr): 89.6 µg/mL (≈ 376 µM); IC50 ([4]; 72 hr): 90.9 µg/mL (≈ 381 µM)

**Q.** Which “Inhibition Rate %” value [7] does the source give for `COc1cc([C@@H]2c3cc4c(cc3[C@@H](O[C@@H]3O[C@@H]5CO[C@@H](c6cccs6)O[C@H]5[C@H](O)[C@H]3O)[C@H]3COC(=O)[C@H]23)OCO4)cc(OC)c1O` [VM26, reference compound] here?
**A.** The value was 61.08%.

**Q.** And the “Tumor Weight X ± SD” value ([7]; in g (unit assumed))?
**A.** Its value is 0.72 ± 0.12.

**Q.** And the “Average Life Span (day) X± SD” value [8]?
**A.** Its value is 30.8 ± 3.7 days.

**Q.** What about the “Survival time as % of control (T/C)” value ([8]; compared to control) of the same molecule?
**A.** The value was 196.75%.

**Q.** And the “Average Life Span (day) X± SD” value [9]?
**A.** The value was 21.5 ± 3.4 days.

**Q.** What about the “Inhibition Rate %” value [10] of the same molecule?
**A.** The value was 85.78%.

**Q.** And the “Tumor Weight X ± SD” value ([10]; in g (unit assumed))?
**A.** Its value is 0.32 ± 0.12.

**Q.** How did the IC50 ([11]; Time 4 hr, n = 8) turn out when `O=C1[O][Pt]2([NH][C@@H]3CCCC[C@H]3[NH]2)[O]C1=O` [Oxaliplatin] was run?
**A.** Its IC50 is 166 ± 7.51 µg/mL.

**Q.** What about the IC50 ([11]; Time 4 hr/24 hr × 2, n = 8) of the same molecule?
**A.** The IC50 was 21.8 ± 1.06 µg/mL.

**Q.** And the IC50 ([11]; Time 4 hr/24 hr × 3, n = 8)?
**A.** Its IC50 is 9.90 ± 1.01 µg/mL.

**Q.** What about the IC50 ([11]; Time 4 hr/24 hr, n = 8) of the same molecule?
**A.** The IC50 was 29.5 ± 7.05 µg/mL.

**Q.** What about the IC50 ([11]; Time 8 hr, n = 8) of the same molecule?
**A.** The IC50 was 124 ± 13.1 µg/mL.

**Q.** And the IC50 ([11]; Time 12 hr, n = 8)?
**A.** Its IC50 is 69.7 ± 12.7 µg/mL.

**Q.** And the IC50 ([11]; Time 24 hr, n = 8)?
**A.** The IC50 was 25.2 ± 7.85 µg/mL.

**Q.** And the IC50 ([11]; Time 48 hr, n = 8)?
**A.** The IC50 was 20.4 ± 2.14 µg/mL.

**Q.** What about the IC50 ([11]; Time 72 hr, n = 8) of the same molecule?
**A.** Its IC50 is 13.4 ± 2.42 µg/mL.

**Q.** What about the IC50 ([12]; HCT-15, 4 hr/24 hr × 2) of the same molecule?
**A.** Its IC50 is 16.4 ± 4.64 µg/mL.

**Q.** What about the IC50 ([12]; HCT-15, 4 hr/24 hr × 3) of the same molecule?
**A.** The IC50 was 11.8 ± 3.69 µg/mL.

**Q.** What about the IC50 ([12]; HCT-15, 4 hr/24 hr) of the same molecule?
**A.** Its IC50 is 22.0 ± 7.66 µg/mL.

**Q.** And the IC50 ([12]; HCT-15, 4 hr)?
**A.** The IC50 was 28.4 ± 6.80 µg/mL.

**Q.** And the IC50 ([12]; HCT-15, 8 hr)?
**A.** Its IC50 is 25.7 ± 5.61 µg/mL.

**Q.** What about the IC50 ([12]; HCT-15, 12 hr) of the same molecule?
**A.** Its IC50 is 19.3 ± 3.21 µg/mL.

**Q.** And the IC50 ([12]; HCT-15, 48 hr)?
**A.** The IC50 was 14.5 ± 2.66 µg/mL.

**Q.** And the IC50 ([12]; HCT-15, 72 hr)?
**A.** Its IC50 is 14.9 ± 3.33 µg/mL.

**Q.** And the IC50 ([13]; HCT-116, 4 hr/24 hr × 2)?
**A.** Its IC50 is 106 ± 15.7 µg/mL.

**Q.** And the IC50 ([13]; HCT-116, 4 hr/24 hr × 3)?
**A.** The IC50 was 65.7 ± 7.02 µg/mL.

**Q.** And the IC50 ([13]; HCT-116, 4 hr/24 hr)?
**A.** Its IC50 is 148 ± 13.7 µg/mL.

**Q.** And the IC50 ([13]; HCT-116, 4 hr)?
**A.** The IC50 was 373 ± 69.6 µg/mL.

**Q.** What about the IC50 ([13]; HCT-116, 8 hr) of the same molecule?
**A.** The IC50 was 92.2 ± 15.7 µg/mL.

**Q.** What about the IC50 ([13]; HCT-116, 12 hr) of the same molecule?
**A.** The IC50 was 74.4 ± 6.28 µg/mL.

**Q.** And the IC50 ([13]; HCT-116, 24 hr)?
**A.** Its IC50 is 68.9 ± 7.92 µg/mL.

**Q.** And the IC50 ([13]; HCT-116, 48 hr)?
**A.** Its IC50 is 64.5 ± 7.89 µg/mL.

**Q.** And the IC50 ([13]; HCT-116, 72 hr)?
**A.** The IC50 was 57.2 ± 10.5 µg/mL.

**Q.** What does the source list for `C=C[C@]1(C)CC[C@@H]([C@@](C)(O)CO)C[C@H]1C(=C)C` (single isomer, unassigned) [Lr-1]?
**A.** IC50 ([1]; A172, 24 h): 106 µg/mL (≈ 445 µM); IC50 ([1]; A172, 48 h): 94 µg/mL (≈ 394 µM); IC50 ([1]; A172, 72 h): 90 µg/mL (≈ 378 µM); IC50 ([2]; STTG1, 24 h): 108 µg/mL (≈ 453 µM); IC50 ([2]; STTG1, 48 h): 98 µg/mL (≈ 411 µM); IC50 ([2]; STTG1, 72 h): 94 µg/mL (≈ 394 µM); IC50 ([3]; U87, 24 h): 98 µg/mL (≈ 411 µM); IC50 ([3]; U87, 48 h): 94 µg/mL (≈ 394 µM); IC50 ([3]; U87, 72 h): 89 µg/mL (≈ 373 µM)
